Earlier results, collected in patent publication US20200246414A1, “COMPOSITIONS AND METHODS FOR THE TREATMENT OF CONSTIPATION AND OTHER AILMENTS OF THE GASTROINTESTINAL SYSTEM” (K.L.R.M., LLC, priority 2019, published 2020).

Tested on: isolated gastric cells
Conditions: suspension of isolated gastric cells
In the case of `CC(=O)N[C@H](C(=O)O)C(C)(C)SN=O` (racemic) [S-nitroso-N-acetylpenicillamine], the “mucus secretion / mucus release” value is given as “stimulated mucus secretion”.
For `CCCC(=O)Nc1nc2c(ncn2C2O[C@H]3COP(=O)(O)O[C@@H]3[C@@H]2OC(=O)CCC)c(=O)[nH]1` (stereo partly shown) [Dibutyryl cyclic GMP], the “mucus secretion / mucus release” value is listed as “increased the mucus release”.
For `CCCOc1ccccc1-c1nc2[nH]nnc2c(=O)[nH]1` [M and B 22948], the “mucus secretion / mucus release” value is given as “increased the mucus release”.
In the case of `O=[N+]([O-])O[C@H]1CO[C@H]2[C@@H]1OC[C@H]2O[N+](=O)[O-]` [isosorbide dinitrate], the “mucus secretion / mucus release” value is given as “stimulated mucus secretion”.
